The values below come from patent publication US7842488B2, “Polynucleotides encoding a human 3-phosphoinositide- dependent protein kinase” (Medical Research Council, priority 1997, dated 2010).

Experiment [1] concerns PDK1. In words: PDK1 assay: activation of GST-PKBα by purified PDK1 with phospholipid vesicles. Type of experiment: biochemical, rabbit. The conditions noted are these: for activation of PDK1 (in words) / fold-activation of GST-PKBα (PDK1 activity): lipid 10 μM in vesicles of 100 μM PtdCho, 100 μM PtdSer, 30 min at 30° C.; for order of level of activation of the 3-phosphoinositide-dependent kinase (most effective first): rabbit skeletal muscle PDK1, FIG. 6. On the procedure:
Assay of PDK1. The assay was carried out in two stages; in the first, GST-PKBα was incubated with PDK1 in the presence of MgATP and phospholipid vesicles to permit activation of GST-PKBα.
After 10 min at 30° C., the reactions were terminated by spotting the reaction mixture on to p81 phosphocellulose paper. The papers were washed in phosphoric acid and analysed as described previously. […] The basal GST-PKBα activity is the activity measured in the absence of PDK1.

The target in a further experiment is T1, GST-ΔPH-PDK1 (Homo sapiens, UniProt O15530).
T1 construct: expressed as a GST-fusion protein in 293 cells (GST-ΔPH-PDK1, residues 1-450); made in house; host or cells: human embryonic kidney 293 cells (pEBG-2T)
In words: GST-ΔPH-PDK1 assay: activation of GST-PKBα. The conditions noted are these: lipid 10 μM in PtdCho/PtdSer vesicles. Type of experiment: biochemical. Here is the method: FIG. 15. Role of the PH domains of PKBα and PDK1. […] The assays were terminated by making the incubations 1% (by vol) in Triton X-100 as in Example 1, and the increase in specific activity of GST-PKBα was determined. The basal activity of GST-PKBα was 2.5 U/mg and that of GST-ΔPH-PKBα was 8 U/mg. At the high concentration of GST-PDK1 used in this assay the rate of activation of full length wild type GST-PKBα is not linear with time whereas the activation of GST-ΔPH-PKBα is linear. When the experiments are carried out at 20-fold lower concentrations of GST-PDK1 a similar extent of activation of wild-type GST-PKBα is achieved as that shown in the figure for GST-ΔPH-PKBα by 2.3 nM GST-PDK1. (B) as in (A) except that 0.5 μg of GST-PKBα was incubated with 2.5 nM […] in the presence of phospholipid vesicles containing 100 μM PtdCho, 100 μM PtdSer and 10 μM of either, sn-1-stearoyl-2-arachidonyl-D-PtdIns(3,4,5)P3 (Track 1); sn-1-stearoyl-2-arachidonyl-L-PtdIns(3,4,5)P3 (Track 2), sn-1,2 di-palmitoyl-D-PtdIns(3,4,5)P3 (Track 3), sn-1,2 di-palmitoyl-D-PtdIns(3,4,5)P3 (Track 4), PtdIns(4,5)P2 (purified from Folch brain fraction Track 5) and sn-1,2 di-palmitoyl-D-PtdIns-3P (Track 6). The results are presented as the increase in the specific activity of GST-PKBα (U/mg), (±SEM for 6-9 determinations, three independent experiments), relative to a control incubation in which GST-PDK1 is omitted.
Assay of GST-PDK1 and GST-DSTPK61 activity. GST-PDK1 and GST-DSTPK61 were diluted appropriately in Buffer B containing 1 mg/ml bovine serum albumin, and assayed for their ability to activate and phosphorylate GST-PKBα [21]. One unit of PDK1 activity was defined as that amount required to increase the basal activity of GST-PKBα by 1 unit of activity in one min. One unit of GST-PKBα activity was that amount of enzyme required to catalyse the phosphorylation of 1 nmol of the peptide RPRAATF (SEQ ID NO: 9) in 1 min in an assay containing 0.1 mM RPRAATF (SEQ ID NO: 9)). […]

A further experiment concerns the target T2, GST-PDK1 (Homo sapiens, UniProt O15530).
T2 construct: Residues 52-556 of PDK1 were expressed in human embryonic kidney 293 cells; made in house; host or cells: human embryonic kidney 293 cells (pEBG2T)
T2 sequence (O15530 52-556): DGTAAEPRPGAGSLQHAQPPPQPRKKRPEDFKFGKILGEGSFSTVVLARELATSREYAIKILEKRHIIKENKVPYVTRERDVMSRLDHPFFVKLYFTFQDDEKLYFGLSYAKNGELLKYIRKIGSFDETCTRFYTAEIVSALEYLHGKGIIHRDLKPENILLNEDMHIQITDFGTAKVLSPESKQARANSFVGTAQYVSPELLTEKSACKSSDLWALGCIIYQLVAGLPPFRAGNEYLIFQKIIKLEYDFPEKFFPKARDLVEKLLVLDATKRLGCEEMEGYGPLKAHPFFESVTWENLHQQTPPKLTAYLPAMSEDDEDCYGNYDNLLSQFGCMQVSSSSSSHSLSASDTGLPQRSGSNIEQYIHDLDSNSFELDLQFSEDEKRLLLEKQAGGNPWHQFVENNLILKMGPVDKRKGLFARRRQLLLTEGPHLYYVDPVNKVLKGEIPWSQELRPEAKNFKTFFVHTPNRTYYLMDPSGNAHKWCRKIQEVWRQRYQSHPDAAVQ
Nature of the experiment: GST-PDK1 assay: activation and phosphorylation of GST-PKBα. Type of experiment: biochemical. The following applies: lipid 10 μM in PtdCho/PtdSer vesicles. Here is the method: (§1) FIG. 12. […] In panels A and C, the assays were terminated by making the incubations 1% (by vol) in TRITON X-100™ (see Ref 21), and the increase in specific activity of GST-PKBα was determined. In panels B and D, the reactions were terminated by making the solutions 1% in SDS, the samples were subjected to SDS/polyacrylamide gel electrophoresis, and the phosphorylation was assessed by autoradiography of the Coomassie blue-stained band corresponding to GST-PKBα.
(§2) One unit of PDK1 activity was defined as that amount required to increase the basal activity of GST-PKBα by 1 unit of activity in one min.

Experiment [2] has as its system PDK1. Nature of the experiment: Phosphorylation of GST-PKBα by PDK1 with [γ32P]ATP. Type of experiment: biochemical, rabbit. The following applies: lipid 10 μM in PtdCho/PtdSer vesicles. Here is the method: Solutions were stored at 4° C. at concentrations 10-fold higher than those required in the assay and used within 2-4 days.
Phosphorylation of GST-PKB ? by PDK1. The incubations were identical to the Stage 1 described above except that [γ^32P] ATP (200-400 cpm/pmol) was used instead of unlabelled ATP. The reactions were terminated by making the solution 1% (by mass) in SDS. […] The Coomassie blue-staining bands corresponding to GST-PKBα were excised and the ^32P-radioactivity associated with each band was quantified.

The target in a further experiment is T3, GST-DSTPK61 (Drosophila melanogaster, UniProt Q9W0V1).
T3 construct: residues 1-752 of DSTPK61 in E. coli as fusion proteins; made in house; host or cells: E. coli (pGEX-3X)
In words: GST-DSTPK61 assay: activation and phosphorylation of GST-PKBα. Type of experiment: biochemical. The conditions noted are these: lipid 10 μM in PtdCho/PtdSer vesicles. On the procedure: as §1, §2

The next experiment has as its target PKB (Homo sapiens, UniProt P31749). The following applies: cited from earlier work.
The test system of another experiment is GST-PKBα. Nature of the experiment: Activation of GST-PKBα after stimulation of transfected 293 cells. Type of experiment: cell-based, human. The following applies: versus unstimulated 293 cells. From the text:
Expression of GST-PKBα in 293 cells. The DNA sequence encoding PKBα was subcloned into the eukaryotic expression vector PEBG2T that has been used to overexpress GST-fusion proteins in eukaryotic cells under an EF1α promoter. A PCR reaction was set up to generate a full length cDNA encoding the PKBα gene with a BamH1site at the 5′ end of the cDNA that is in frame with the GST sequence of the PEBG2T vector and the ATG initiation codon of PKBα, and a KpnI site at the 3′ end, using the human PCMV5-HA-PKBα plasmid. The DNA sequence of the BamH1/KpnI cDNA fragment was checked and then subcloned into the unique BamH1/KpnI restriction sites on the pEBG 2T expression vector. In order to prepare GST-PKBα, 40, 10 cm diameter dishes of human embryonic kidney 293 cells were cultured and each dish transfected with 20 μg of GST PKBα expression construct using the modified calcium phosphate method described previously for overexpression of haemaglutinin tagged PKBα in 293 cells. […]

T1 sequence (P31749 whole entry partner, the tested form may be a part): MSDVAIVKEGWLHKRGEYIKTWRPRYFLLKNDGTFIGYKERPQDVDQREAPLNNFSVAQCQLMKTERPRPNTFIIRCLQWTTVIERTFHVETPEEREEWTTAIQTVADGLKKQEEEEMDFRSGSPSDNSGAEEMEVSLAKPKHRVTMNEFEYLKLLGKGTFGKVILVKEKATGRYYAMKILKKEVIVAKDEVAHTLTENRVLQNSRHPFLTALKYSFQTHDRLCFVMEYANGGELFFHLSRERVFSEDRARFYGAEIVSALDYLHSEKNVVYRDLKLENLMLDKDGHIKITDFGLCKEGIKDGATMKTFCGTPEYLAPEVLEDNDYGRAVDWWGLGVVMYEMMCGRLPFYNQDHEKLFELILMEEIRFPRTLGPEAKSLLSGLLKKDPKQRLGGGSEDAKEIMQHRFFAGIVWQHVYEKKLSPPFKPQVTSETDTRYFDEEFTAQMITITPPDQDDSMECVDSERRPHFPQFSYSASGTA
T1 sequence (O15530 1-450, stated change not applied): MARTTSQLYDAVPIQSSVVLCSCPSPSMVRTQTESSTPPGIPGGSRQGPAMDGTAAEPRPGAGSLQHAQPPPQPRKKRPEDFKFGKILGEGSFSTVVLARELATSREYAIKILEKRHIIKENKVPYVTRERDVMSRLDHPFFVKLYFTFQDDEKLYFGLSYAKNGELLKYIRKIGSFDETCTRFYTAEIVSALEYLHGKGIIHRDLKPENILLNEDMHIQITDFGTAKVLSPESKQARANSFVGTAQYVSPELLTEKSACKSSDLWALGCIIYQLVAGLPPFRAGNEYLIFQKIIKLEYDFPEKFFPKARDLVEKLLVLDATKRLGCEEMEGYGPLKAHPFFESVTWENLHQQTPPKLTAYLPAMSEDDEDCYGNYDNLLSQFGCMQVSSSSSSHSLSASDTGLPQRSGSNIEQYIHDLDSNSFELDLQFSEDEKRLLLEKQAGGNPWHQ
Chain of PKB (P31749 whole entry, species assumed): as the sequence (P31749 whole entry partner, the tested form may be a part) above
T3 sequence (Q9W0V1 85-836 Q200H/Q201E/Q317A/G443R): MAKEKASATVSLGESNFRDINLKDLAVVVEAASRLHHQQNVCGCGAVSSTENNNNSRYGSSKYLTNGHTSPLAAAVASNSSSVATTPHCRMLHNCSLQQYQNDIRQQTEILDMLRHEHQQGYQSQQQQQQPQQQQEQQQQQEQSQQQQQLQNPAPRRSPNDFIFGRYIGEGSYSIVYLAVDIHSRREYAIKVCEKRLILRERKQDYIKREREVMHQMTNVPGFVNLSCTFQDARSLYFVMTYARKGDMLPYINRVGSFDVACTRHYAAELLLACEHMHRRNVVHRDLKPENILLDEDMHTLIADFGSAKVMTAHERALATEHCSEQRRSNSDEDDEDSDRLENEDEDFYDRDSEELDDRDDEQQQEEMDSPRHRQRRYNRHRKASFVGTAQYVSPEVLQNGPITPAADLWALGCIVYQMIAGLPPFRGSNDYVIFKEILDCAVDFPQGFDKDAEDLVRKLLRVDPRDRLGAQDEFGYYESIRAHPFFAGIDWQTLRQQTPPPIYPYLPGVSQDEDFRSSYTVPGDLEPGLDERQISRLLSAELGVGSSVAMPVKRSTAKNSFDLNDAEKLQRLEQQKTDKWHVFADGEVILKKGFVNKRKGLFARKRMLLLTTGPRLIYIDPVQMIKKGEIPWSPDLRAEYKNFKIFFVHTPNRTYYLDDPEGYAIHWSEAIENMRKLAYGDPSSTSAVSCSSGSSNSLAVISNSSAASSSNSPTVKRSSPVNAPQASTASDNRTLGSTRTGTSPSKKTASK

With `CCCCC/C=C\C/C=C\C/C=C\C/C=C\CCCC(=O)OC(COC(=O)CCCCCCCCCCCCCCCCC)COP(=O)(O)OC1C(O)C(OP(=O)(O)O)C(OP(=O)(O)O)C(OP(=O)(O)O)C1O` (single isomer, unassigned) [Lipid 2, L-enantiomer of sn-1-stearoyl-2-arachidonyl PtdIns(3,4,5)P3], in the experiment with PDK1 [1], the “activation of PDK1 (in words)” value is “no significant activation” and the “order of level of activation of the 3-phosphoinositide-dependent kinase (most effective first)” value was 2. Further, the “fold-activation of GST-PKBα (PDK1 activity)” value (shortened to “fold-activation of GST-PKBα”) with PDK1 [1] (2-arachidonyl PtdIns(3,4,5)P3) was 1.7 fold. The “activation of PDK1 (in words)” value with PDK1 [1] (listed as L-enantiomer of sn-1-stearoyl-2-arachidonyl PtdIns(3,4,5)P3) is given as “almost ineffective”. In addition, on GST-ΔPH-PDK1, the “activation of GST-PKBα by GST-ΔPH-PDK1 (in words)” value was “no activation”.
As for `CCCCC/C=C\C/C=C\C/C=C\C/C=C\CCCC(=O)O[C@H](COC(=O)CCCCCCCCCCCCCCCCC)COP(=O)(O)O[C@H]1[C@H](O)[C@@H](OP(=O)(O)O)[C@H](OP(=O)(O)O)[C@@H](OP(=O)(O)O)[C@H]1O` [Lipid 1, sn-1-stearoyl, 2-arachidonyl D-phosphatidylinositol 3,4,5-trisphosphate], in the experiment on PDK1 [1], the “activation of PDK1 (in words)” value is given as “potently activated PDK1” and the “fold-activation of GST-PKBα” value is on record as 13 fold. The “activation of GST-PKBα by GST-ΔPH-PDK1 (in words)” value at GST-ΔPH-PDK1 was “activated more effectively”.
`CCCCCCCCCCCCCCCC(=O)OCC(COP(=O)(O)OC1C(O)C(O)C(OP(=O)(O)O)C(OP(=O)(O)O)C1O)OC(=O)CCCCCCCCCCCCCCC` (stereo not shown) [Lipid 7, sn-1,2 di-palmitoyl PtdIns(3,4)P2]: in the experiment with PDK1 [1], the “fold less effective in activating PDK1 than the sn-1-stearoyl-2-arachidonyl and sn-2-arachidonyl-3-stearoyl derivatives” value is roughly 3 fold; the “activation of PDK1 (in words)” value is “as effective as sn-1,2-dipalmitoyl D-PtdIns(3,4,5)P3”; the “fold-activation of GST-PKBα” value is given as “about 6 fold”; the “order of level of activation of the 3-phosphoinositide-dependent kinase (most effective first)” value was found to be 4. For the same molecule, the “activation and phosphorylation of GST-PKBα by GST-PDK1 (in words)” value at GST-PDK1 is recorded as “as effective as sn-1,2-dipalmitoyl D-PtdIns(3,4,5)P3”. The “activation of GST-PKBα by GST-ΔPH-PDK1 (in words)” value at GST-ΔPH-PDK1 is “very poor”.
As to PtdIns(4,5)P2 [Lipid 9], the results for the “activation of PDK1 (in words)” value in the experiment on PDK1 [1], with PDK1 [1] (listed as PtdIns(4,5)P2) and in the experiment with PDK1 [1] (listed as lipid 9) were “no significant activation”, “did not activate PDK1 at all” and “did not activate PDK1”, respectively. Also, in the experiment on PDK1 [2], the “phosphorylation of GST-PKBα by PDK1 (in words)” value is on record as “did not activate PDK1 or induce the phosphorylation”. The “activation and phosphorylation of GST-PKBα by GST-PDK1 (in words)” value on GST-PDK1 is given as “no activation or phosphorylation”. Also, the “activation and phosphorylation of GST-PKBα by GST-DSTPK61 (in words)” value at GST-DSTPK61 is on record as “no activation or phosphorylation”. Moreover, the “fold lower affinity of PKB than for PtdIns(3,4,5)P3 or PtdIns(3,4)P2” value at PKB was 10 fold.
For the molecule “insulin: insulin used to stimulate 293 cells”, the “fold activation of GST-PKBα after stimulation of 293 cells” value in the experiment on GST-PKBα amounted to 20 fold.
